Data taken from patent publication US7262173B2, “Chemosensitizing with liposomes containing oligonucleotides” (Georgetown University, priority 1997, dated 2007).

How the values were obtained:
[1] = system: Raf-1; assay: Raf-1 expression in SQ-20B tumor xenografts after i.v. or intratumoral ODN; format: in vivo, human; conditions: intravenous treatment; compared with untreated controls
Description: FIG. 7: Effects of intravenous administration of LE-ATG-AS raf ODN (SEQ ID NO:1) our Raf-1 expression in normal and tumor tissues. Raf-1 expression was examined in liver, kidneys and SQ-20B tumor xenograft of Balb/c nu/nu mice after i.v. injections of 6 mg/kg daily dose of LE-ATG-AS raf ODN (SEQ ID NO:1) (AS) or LE-ATG-S raf ODN (SEQ ID NO:3) (S) for five consecutive days. Control mice (C) received normal saline. Representative data showing Raf-1 expression in lysates normalized for protein content by immunoprecipitation and immunoblotting (top). Quantification data are shown as mean±s.d. from three mice (bottom).
FIG. 8: Inhibition of Raf-1 protein expression in SQ-20B tumor xenografts by intratumoral administration of LE-ATG-AS raf ODN (SEQ ID NO:1): Each animal received intratumoral injections of LE-ATG-AS raf ODN (SEQ ID NO:1) (AS) on the right flank and LE-ATG-S raf ODN (SEQ ID NO:3) (S) on the left flank at a dose of 4 mg/kg daily for seven days as explained in the experimental procedures. […] Quantification data shown are mean±s.d., from three representative mice. […]
For in vivo expression studies, tumor tissue and organs were homogenized in the cell lysis buffer using Polytron homogenizer (Westbury, N.Y., USA). Raf-1 expression was analyzed in tissue homogenates by immunoprecipitation and immunoblotting as described above.

[2] = mouse, in vivo, iv, 30 mg/kg
Description: FIG. 11: The plasma concentration-time profile of LE-5132 (SEQ ID NO:4) and 5132 (SEQ ID NO:4); 30 mg/kg LE-5132 (SEQ ID NO:4) or 5132 (SEQ ID NO:4) was administered i.v. in Balb/c nu/nu mice. Blood samples were collected from the retroorbital sinus at indicated times after injection, and ODN in plasma samples was extracted and analyzed by denaturing gel electrophoresis as described. […] Quantification data were calculated based on comparison with known concentrations of the standard samples and then normalized against sample dilution factors used for loading.
Male Balb/c nu/nu mice (National Cancer Institute, Frederick, Md.) were maintained in the Division of Comparative Medicine, Georgetown University, according to accredited procedures, and fed purina chow and water ad libitum. Mice were injected i.v. via the tail vein with 30 mg/kg of LE-5132 (SEQ ID NO:4) or 5132 (SEQ ID NO:4) formulated in PBS. At 5, 15, and 30 minutes and 1, 2, 4, 8, 24, and 48 hours after injection, animals were bled, under anesthesia, from the retroorbital sinus into heparinized tubes and killed by cervical dislocation. The blood was centrifuged immediately at 300 g for 10 minutes at 4° C. to separate the plasma. The liver, spleen, kidney, heart, and lungs were rapidly excised and rinsed in ice-cold normal saline. The plasma and organs were stored at −70° C. until further analysis.
Antisense raf ODN concentrations in plasma and tissue samples were detected as we described earlier (Gokhale et al., 1997). Briefly, the ODN was isolated from plasma samples using the phenol-chloroform extraction method and from tissues using a DNA extraction kit (Stratagene, La Jolla, Calif.). The raf ODN concentration standards were prepared by adding known amounts of 5132 (SEQ ID NO:4) in blank plasma or blank tissue samples, followed by extraction as described earlier. The extracts were loaded onto 20% pblyacrylamide/8 M urea gels and electrophoresed in TBE buffer. The gels were electroblotted onto nylon membranes in 0.5×TBE buffer at 20 V for one hour, and the blots were probed with [^32P]-labeled sense raf ODN probe in Quickhyb buffer (Stratagene) at 30° C. overnight. A 10–50-fold excess of the probe was used to ensure saturation of all bands. The autoradiographs were scanned using a computer program (Image-Quant software), and the amounts of antisense raf ODN in the samples were calculated by comparison with standards.

[3] = system: Raf-1; assay: Raf-1 immunoprecipitation and immunoblotting in SQ-20B cells (5132, LE-5132, LE-10353); format: cell-based, human
Description: FIG. 9: Antisense sequence-specific inhibition of Raf-1 expression in SQ-20B cells. (A) Logarithmically growing SQ-20B cells were treated with indicated ODN concentrations of LE-5132 (SEQ ID NO:4) (lanes 3, 5 and 10), 5132 (SEQ ID NO:4) (lanes 4 and 6), or LE-10353 (SEQ ID NO:5) (lane 9) as described in Materials and Methods. Control cells were either left untreated (lanes 1 and 7) or treated with 1 uM blank liposomes (BL) (lanes 2 and 8). Whole cell lysates were normalized for total protein content and immunoprecipitated with agarose-conjugated polyclonal anti-Raf-1 antibody. Immune complexes were resolved by 7.5% SDS-PAGE and immunoblotted with polyclonal anti-Raf-1 antibody. (B) Data from three independent experiments were quantified and expressed relative to the level of Raf-1 in untreated cells.
On day two, cells were rinsed with fresh 30% FBS, followed by a second course of the treatment schedule as on day one for an additional 24 hours. This procedure yielded a minimal exposure of cells of LE-5132 (SEQ ID NO:4) 12 hours). […] The lysates were clarified by centrifugation at 16,000 g for 20 minutes, and the protein concentrations were determined (Pierce, Rockford, Ill.). […] The Raf-1 protein level was quantified using the computer software program Image-Quant (Molecular Dynamics, Sunnyvale, Calif.).

[4] = system: SQ-20B tumor xenografts; assay: SQ-20B tumor xenograft growth (LE-5132, 5132, ionizing radiation); format: in vivo, Balb/c nu/nu mice; conditions: 10 mg/kg i.v. daily 7 days then three doses on alternate days; day 35
Description: FIG. 13: Effect of LE-5132 (SEQ ID NO:4) on […] tumor growth. SQ-20B rumor cells (2×10^6) were injected a.c. into the left flank region of each male Balb/c nu/nu mouse, 10–12 weeks old. Tumor xenografts were grown to a mean tumor volume of 94±6.4 mm^3, and the animals were randomized into two treatment groups. Day 0 represents the first day of treatment. […] The data shown are mean±SE of 5–7 animals per group.
FIG. 15: Effect of LE-5132 (SEQ ID NO:4) and ionizing radiation on SQ-20B rumor growth. (A) SQ-20B tumor xenografts were grown in male Balb/c nu/nu mice as described. Animals bearing a mean tumor volume of 72.0±4.3 mm^3 were randomized into five treatment groups. Day 0 represents the first day of treatment. […]
Logarithmically growing SQ-20B cells were injected s.c. (2×10^o cells) in the left flank region in male Balb/c nu/nu mice under mild anesthesia. […] Volumes for tumors were determined from caliper measurements of the three major axes (a, b, c) and calculated using abc/2, an approximation for the volume of an ellipse (πabc/6).
For each experiment, tumor-bearing mice were randomly divided into different treatment group, with 5–7 animals per group. […] Using TLD dosimetry, the average dose rate to the center of the tumor and to the mouse body were determined beforehand using the experimental irradiation conditions and a custom-made, tissue-equivalent, mouse phantom. […]

| Substance | effect on Raf-1 expression in tumor tissue [1] | AUCarea [2] [ng·h/mL] | CL (total body clearance) [2] [mL/min/kg] | Cmax (peak plasma concentration) [2] [ng/mL] | Vdarea (volume of distribution) [2] [L/kg] | initial distribution half-life [2] [h] | t1/2β (elimination half-life) [2] [h] | terminal half-life (t1/2β) [2] [h] | effect on Raf-1 expression in cell culture [3] | mean tumor volume compared with day 0 (100%) [4] |
| --- | --- | --- | --- | --- | --- | --- | --- | --- | --- | --- |
| 5′-GCAT-CAATGGAGCAC-3′ (sense GCATCAATGGAGCAC; listed as DNA, chemistry not fully specified) [ATG-S raf ODN] | no effect | – | – | – | – | – | – | – | – | – |
| 5′-TCC-CGC-CTG-TGA-CAT-GCA-TT-3′ [compound 5132] | – | 6200 | 80.3 | 13570 | 29.96 | 0.36 | 4.30 | 4.3 | ineffective | 159.6%±10.0% |
